From US20210259960A1, “FORMULATION CONTAINING EMRICASAN” (The Doshisha, priority 2018, published 2021)

What was measured:
[1] = Solubility of emricasan with 2% surfactant at various pH, visually observed (Example 1); format: physicochemical
Procedure: 28 mg, which is the amount for the target concentration, of emricasan powder (Chemscene) was accurately measured with an electronic balance (AUW220D, SHIMADZU) and transferred to a glass test tube. 100 μl of 99% ethanol was added thereto to dissolve the emricasan powder. The solution thereof was sufficiently stirred with a vortex mixer in order to completely dissolve the emricasan powder. The solution thereof was then added with each of polysorbate 80 (Tween 80, NIKKOL), polyoxyethylene hydrogenated castor oil (HCO-60, NIKKOL), and polyethylene glycol monostearate (MYS-40, NIKKOL), which are nonionic surfactants comprising a polyoxyethylene group, so that the final concentration was 2%, followed by sufficient stirring. Phosphate buffered saline (PBS) was added to this solution so that the total amount was 5 ml, and the solution was sufficiently stirred and solubility was visually observed.

[2] = Solubility of emricasan with 0.5% of various surfactants at low pH, visually observed (Example 2); format: physicochemical; conditions: target 10 mmol/L; surfactant 0.5% (HCO-100, HCO-60, HCO-40, HCO-20, CO-35, MYS-40, poloxamer 407)
Procedure: In this example, a target dissolution concentration of emricasan was set to be 10 mmol/L in the same manner as Example 1. 28 mg of emricasan was accurately measured with an electronic balance (AUW220D, SHIMADZU) and transferred to a glass test tube. 100 μl of 99% ethanol was added thereto to dissolve emricasan. The solution thereof was sufficiently stirred with a vortex mixer in order to completely dissolve emricasan. The solution thereof was then added with polyoxyethylene hydrogenated castor oil 100 (HCO-100, NIKKOL), polyoxyethylene hydrogenated castor oil (HCO-60, NIKKOL), polyoxyethylene hydrogenated castor oil 40 (HCO-40, NIKKOL), polyoxyethylene hydrogenated castor oil 20 (HCO-20, NIKKOL), polyoxyethylene castor oil (CO-35:, NIKKOL), polyethylene glycol monostearate 40 (MYS-40, NIKKOL), and polyoxyethylene polyoxypropylene glycol 407 (poloxamer 407, NIKKOL), which are nonionic surfactants comprising a polyoxyethylene group, so that the final concentration was 0.5%, followed by sufficient stirring. Phosphate buffered saline (PBS) was added to this solution so that the total amount was 5 ml, and the solution was sufficiently stirred and solubility was visually observed.

[3] = Stability of emricasan in solution using HCO-60, HPLC (Example 3); format: physicochemical; conditions: 0.5% emricasan, 0.5% HCO-60
Procedure: Stability of when HCO-60 was used as a surfactant to dissolve emricasan to a final concentration of 0.5% was tested. 500 mg of emricasan was accurately measured with an electronic balance (AUW220D, SHIMADZU) and transferred to a glass test tube. 2 ml of 99% ethanol was added thereto to dissolve emricasan. The solution thereof was sufficiently stirred with a vortex mixer in order to completely dissolve emricasan. The solution thereof was then added with polyoxyethylene hydrogenated castor oil 60 (HCO-60, NIKKOL), which is a surfactant, so that the final concentration was 0.5%, followed by sufficient stirring. Ethanol was then distilled off by a nitrogen gas stream. In order to adjust osmotic pressure, concentrated glycerin was added to this solution so that the final concentration was 1%. Phosphate buffered saline (PBS) was adjusted to pH 8, and added so that the total amount was 100 ml. After the solution was sufficiently stirred, 20 ml was collected and filtered with a 0.22 μmGV filter (Merck Millipore). 5 ml of the first filtrate was discarded, and 15 ml of the subsequent filtrate was collected. […] In this case, the stability was evaluated over time by assuming the results of HPLC measurement immediately after preparation to be 100% and comparing said results with the results after 2 weeks and 4 weeks. […]

[4] = Stability of emricasan in solution using Tween 80, HPLC (Example 4); format: physicochemical; conditions: 0.5% emricasan, 0.5% Tween 80
Procedure: Stability of when Tween 80 was used as a surfactant to dissolve emricasan to a final concentration of 0.5% was tested. 500 mg of emricasan was accurately measured with an electronic balance (AUW220D, SHIMADZU) and transferred to a glass test tube. 2 ml of 99% ethanol was added thereto to dissolve emricasan. The solution thereof was sufficiently stirred with a vortex mixer in order to completely dissolve emricasan. The solution thereof was then added with polysorbate 80 (Tween 80, NIKKOL), which is a surfactant, so that the final concentration was 0.5%, followed by sufficient stirring. Ethanol was then distilled off by a nitrogen gas stream. In order to adjust osmotic pressure, concentrated glycerin was added to this solution so that the final concentration was 1%. Phosphate buffered saline (PBS) was adjusted to pH 8, and added so that the total amount was 100 ml. After the solution was sufficiently stirred, 20 ml was collected and filtered with a 0.22 μmGV filter (Merck Millipore). 5 ml of the first filtrate was discarded, and 15 ml of the subsequent filtrate was collected. 5 ml of this filtrate was placed in each glass test tube for 4° C., 25° C., and 37° C., shaded by a parafilm and an aluminum foil, and preserved under each temperature condition. The stability of this sample was studied by a high performance liquid chromatography (HPLC, Shimadzu Corporation). […]

[5] = Stability of emricasan in an acidic region using Tween 80, HPLC (Example 5); format: physicochemical
Procedure: Stability of when Tween 80 was used as a surfactant to dissolve emricasan to a final concentration of 0.1% was tested.
45 mg of emricasan was accurately measured with an electronic balance (AUW220D, SHIMADZU) and transferred to a glass test tube. 0.9 ml of 99% ethanol was added thereto to dissolve emricasan. The solution thereof was sufficiently stirred with a vortex mixer in order to completely dissolve emricasan. The solution thereof was then added with polysorbate 80 (Tween 80, NIKKOL), which is a surfactant, so that the final concentration was 0.5%, followed by sufficient stirring. Ethanol was then distilled off by a nitrogen gas stream. In order to adjust osmotic pressure, concentrated glycerin was added to this solution so that the final concentration was 1%. Phosphate buffered saline (PBS) was adjusted to pH 5.5, and added so that the total amount was 45 ml. After the solution was sufficiently stirred, 20 ml was collected and filtered with a 0.22 μmGV filter (Merck Millipore). 5 ml of the first filtrate was discarded, and 15 ml of the subsequent filtrate was collected. 5 ml of this filtrate was placed in each glass test tube for 4° C., 25° C., and 37° C., shaded by a parafilm and an aluminum foil, and preserved under each temperature condition. The stability of this sample was studied by a high performance liquid chromatography (HPLC, Shimadzu Corporation). HPLC conditions were as follows: acetonitrile containing 0.05% trifluoroacetic acid and water were used at the ratio of 60:40 as a mobile phase, the temperature of VR-ODS column (4.6×150 mm, Shimadzu Corporation) was set to be 40° C., the flow rate was set to be 1.0 ml/min, the detection wavelength was set to be 254 nm, the injection volume was set to be 10 μl, and the detection time was set to be 10 minutes. In this case, the stability was studied over time by assuming the results of HPLC measurement immediately after preparation to be 100% and comparing said results with the results after 2 weeks and 4 weeks. Further, the condition of pH 4.5 was prepared and studied in the same method as described above.

[6] = Lyophilization test of emricasan ophthalmic solution, re-solubility by HPLC (Example 6); format: physicochemical; conditions: water added
Procedure: 7 mg of emricasan was accurately measured with an electronic balance (AUW220D, SHIMADZU) and transferred to a glass test tube. 140 μl of 99% ethanol was added thereto to dissolve emricasan. The solution thereof was sufficiently stirred with a vortex mixer in order to completely dissolve emricasan. The solution thereof was then added with polysorbate 80 (Tween 80, NIKKOL), which is a surfactant, so that the final concentration was 0.5%, followed by sufficient stirring. Ethanol was then distilled off by a nitrogen gas stream. D-mannitol (Wako Pure Chemical Industries, Ltd.) was dissolved into phosphate buffered saline (PBS) so that the final concentration was 4.5%, and the solution thereof was adjusted to pH 4.5 and added to the above solution so that the total amount was 7 ml. This solution was sufficiently stirred, and preserved in a −83° C. freezer for one day. After freezing, water was completely removed by a lyophilization machine (FDU-1200, TOKYO RIKAKIKAI CO, LTD) for 12 hours.
Water was then added to study the re-solubility. Further, after this sample was filtered with a 0.22 μmGV filter (Merck Millipore), the re-solubility of emricasan was measured by a high performance liquid chromatography (HPLC, Shimadzu Corporation). […]

[7] = system: immortalized cells in Fuchs' endothelial corneal dystrophy (iFECD); conditions: in vitro; cited from earlier work

For C[C@H](NC(=O)C(=O)Nc1ccccc1C(C)(C)C)C(=O)N[C@@H](CC(=O)O)C(=O)COc1c(F)c(F)cc(F)c1F [emricasan], the “solubility (visually observed)” value ([1]; HCO-60 2%, pH 5.0, target 10 mmol/L) was “a suspended state was maintained”, the “solubility (visually observed)” value ([1]; Tween 80, HCO-60 or MYS-40 2%, pH 7, target 10 mmol/L) was “dissolution of all of the emricasan was observed” and the “solubility in saline, phosphate buffer, purified water” value ([1]; no surfactant, at a concentration for use in an eye drop) was “poorly soluble”. The “solubility (visually observed)” value ([1]; no surfactant, pH 7.0 to 8.0, target 10 mmol/L) was “dissolution was not observed”, the “minimum pH value of a solvent in which dissolution was visually observed” value ([1]; target 10 mmol/L, nonionic polyoxyethylene surfactant 2%) was 6.0 and the “solubility (visually observed)” value ([1]; with surfactant 2%, pH 5.0, target 10 mmol/L) was “slightly dissolved”. For the same molecule, the “final pH at which dissolution was observed” value [2] was at least 6.5, the stability in solution ([3]; 25° C. and 37° C.) was “degradation of emricasan was observed” and the “emricasan which was not degraded (residual vs immediately after preparation)” value ([3]; pH 6 to 8, 4° C., 4 weeks) was “no less than 90%”. The stability in solution ([4]; 25° C. and 37° C.) was “degradation of emricasan was observed”, the “emricasan which was not degraded (residual vs immediately after preparation)” value ([4]; pH 6 to 8, 4° C., 4 weeks) was “no less than 90%” and the “emricasan which was not degraded” value ([5]; 0.1% emricasan, 0.5% Tween 80, pH 4.5, 25° C., 2 weeks) was “no less than 90%”. The “emricasan which was not degraded” value ([5]; 0.1% emricasan, 0.5% Tween 80, pH 4.5 and 5.5, 4° C., 4 weeks) was “no less than 90%”, the stability in solution ([5]; 0.1% emricasan, 0.5% Tween 80, pH 4.5 and pH 5.5, 37° C.) was “degradation of emricasan was observed” and the “emricasan which was not degraded” value ([5]; 0.1% emricasan, 0.5% Tween 80, pH 5.5, 25° C., 2 weeks) was “less than 90%”. The “emricasan which was not degraded” value ([5]; 0.1% emricasan, 0.5% Tween 80, pH 5.5, 25° C., 4 weeks) was “no less than 50%”, the “solubility at final concentration of 0.1%” value ([5]; 0.5% Tween 80, pH 4.5 and pH 5.5) was “dissolved” and the “amount of emricasan that dissolves” value ([5]; pH on the acidic side) was “at least 0.1 % by weight”. The “amount of emricasan dissolved relative to before lyophilization” value ([6]; lyophilized (0.5% Tween 80, 4.5% D-mannitol, pH 4.5), after 0.22 μm filtration) was “about 88%”, the “re-solubility after addition of water (appearance)” value ([6]; lyophilized sample) was “immediately dissolved but was pale white” and the “concentration that exhibited pharmacological activity” value [7] was 10 μmol/L.
